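Where inhibition never reached the appropriate level, the endpoint shown equals the highest concentration tested. Otherwise, values were interpolated linearly from a five-concentration, 48-hour dose response in 96-well plates. Here, GI50 denotes the concentration required for 50% inhibition of growth.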 Active and inactive are the calls of the source. Rule as the data show it: active = GI50 up to about 1.1 µM and inactive = higher.

The results in this text go back to ChEMBL document CHEMBL1201862, “PubChem BioAssay data set” (2004).

What all share (assay): NCI tumour cell line growth inhibition, 48 h
For assay [1], the system named is NCI-H226.
Assay [2] concerns MOLT-4.
Assay [3] concerns K562.
Assay [4] has as its system IGROV-1.
Assay [5] concerns T47D.
Assay [6] relates to U-251.
Assay [7] deals with NCI-H23.
Assay [8] concerns CCRF-CEM.
For assay [9], the system named is A549.
Assay [10] has as its system HCC 2998.
The test system of assay [11] is OVCAR-3.
Assay [12] relates to RPMI-8226.
Assay [13] concerns SN12C.
Assay [14] has as its system ACHN.
Assay [15] has as its system UACC-62.
Assay [16] relates to MDA-MB-231.
Assay [17] has as its system SK-MEL-5.
Assay [18] has as its system Malme-3M.
The subject of assay [19] is HOP-92.
Assay [20] concerns CAKI-1.

For `CC(=O)N1CC(C)(C)c2c1cc(C)c(O)c2C`, the GI50 in assay [1], in [2], in [3], in [4], in assay [5] and in [6] was > 100 µM (inactive) each time. For the same compound, the GI50 in [7], in assay [8], in assay [9], in assay [10], in [11] and in [12] was > 100 µM (inactive) each time. For the same compound, the GI50 in [13], in assay [14], in assay [15], in assay [16] and in assay [17] was > 100 µM (inactive) each time.
Consider `COC(=O)C1(NC(=O)C(CC(=O)OCc2ccccc2)NC(=O)OCc2ccccc2)CCCCCC1` (stereo not given), for which the GI50 was 29.4 µM (inactive) in assay [1]; 21.4 µM (inactive) in assay [2]; 23.2 µM (inactive) in [3]; 24.1 µM (inactive) in assay [18]; 37.6 µM (inactive) in assay [4]; 30.8 µM (inactive) in [5]. The GI50 in assay [6] was 44.9 µM (inactive); in [19], 36.6 µM (inactive); in assay [7] it was 41.8 µM (inactive); in [9] it was 32.8 µM (inactive); in assay [11], 26.1 µM (inactive); in assay [12], 3.93 µM (inactive). In addition, the GI50 in assay [14] is 34 µM (inactive); in assay [15] it was 16.4 µM (inactive); in [16], 32.4 µM (inactive); in assay [17] it was 15.4 µM (inactive); in assay [20] it was 20.8 µM (inactive).
On to `CCn1c(-c2ccc(OC(C)=O)cc2)c(C)c2cc(OC(C)=O)ccc21` [ZINDOXIFENE], for which the GI50 is 30.1 µM (inactive) in assay [1]; 8.49 µM (inactive) in assay [2]; 11.8 µM (inactive) in assay [3]; 21.7 µM (inactive) in [18]; 24 µM (inactive) in assay [4]; 19.4 µM (inactive) in [5]. The GI50 in [6] was 11.3 µM (inactive); in [19] it was 30.1 µM (inactive); in [7], 24.1 µM (inactive); in assay [8] it was 23.3 µM (inactive); in assay [9], 15.4 µM (inactive); in assay [11] it was 16.7 µM (inactive). Further, the GI50 in assay [12] is 12.5 µM (inactive); in [13], 27.5 µM (inactive); in [14] it was 19.4 µM (inactive); in assay [15], 13.2 µM (inactive); in assay [16], 14.6 µM (inactive); in assay [17], 13.8 µM (inactive). The GI50 in assay [20] is 24.3 µM (inactive).
Regarding `N#Cc1[nH]c(=O)n(-c2cccc3ccccc23)c1N`, the GI50 in assay [2], in assay [3], in [18], in [4], in [5] and in [6] was > 10 µM (inactive) in each case. Also, the GI50 in [7] is > 10 µM (inactive); in assay [8] it was > 10 µM (inactive); in [9], > 10 µM (inactive); in assay [10], > 10 µM (inactive); in [11], > 10 µM (inactive); in assay [12], 0.001 µM (active). Besides, the GI50 in [13], in assay [14], in [15], in assay [16], in [17] and in assay [20] was > 10 µM (inactive) in each case.
For the compound `Oc1c(Cl)cc(CN(Cc2cc(Cl)c(O)c(Cl)c2)C2CCCCC2)cc1Cl`, the GI50 in assay [2], in assay [3], in assay [18], in assay [4], in assay [5] and in assay [6] was > 100 µM (inactive) in each case. Also, the GI50 in assay [19] was > 100 µM (inactive); in [7], > 100 µM (inactive); in [8], < 0.01 µM (active); in assay [9], > 100 µM (inactive); in [11], > 100 µM (inactive); in assay [12] it was > 100 µM (inactive). The GI50 in assay [13], in assay [14], in [15], in [16], in [17] and in [20] was > 100 µM (inactive) throughout.
On to `O=c1[nH]c(N/N=C\C(O)C(O)C(O)C(O)CO)nc2ccccc12` (stereo not given), for which the GI50 in assay [1], in [2], in assay [3], in [4], in assay [5] and in [6] was > 100 µM (inactive) in each case. The GI50 in assay [19], in [7], in assay [8], in assay [9], in assay [11] and in assay [12] was > 100 µM (inactive) in each case. The GI50 in assay [13], in assay [14], in [15], in [16], in [17] and in assay [20] was > 100 µM (inactive) throughout.
Consider `N/C(=N\c1ccc(Cl)cc1)NS(=O)(=O)c1cccc2nsnc12`, for which the GI50 is 68.7 µM (inactive) in assay [1]; 26.9 µM (inactive) in [2]; 36.6 µM (inactive) in assay [3]; 18 µM (inactive) in [18]; 23.7 µM (inactive) in assay [4]; 39.4 µM (inactive) in assay [5]. Also, the GI50 is 19.4 µM (inactive) in assay [6]; 16.1 µM (inactive) in [19]; 34.7 µM (inactive) in assay [7]; 52.1 µM (inactive) in assay [9]; 44.3 µM (inactive) in assay [11]; 33.8 µM (inactive) in assay [12]. Further, the GI50 in assay [13] is 25.4 µM (inactive); in [14] it was 30.3 µM (inactive); in [15], 17 µM (inactive); in assay [16], 17.9 µM (inactive); in assay [17], 16.1 µM (inactive).
In the case of `COC(=O)C1CCC(=O)N1CN(C(C)=O)c1cccc(O)c1` (stereo not given), the GI50 in assay [1], in assay [2], in assay [3], in assay [18], in assay [4] and in assay [5] was > 100 µM (inactive) throughout. Besides, the GI50 in [6], in assay [19], in assay [7], in [9], in assay [11] and in assay [12] was > 100 µM (inactive) each time. For the same compound, the GI50 in assay [13], in assay [14], in [15], in [16], in assay [17] and in assay [20] was > 100 µM (inactive) in each case.
In the case of `CC(=O)OC1CCC2(C)C(=CC(C3C=C4CC(OC(C)=O)CCC4(C)C4=C3C3CC5OC6(CCC(C)CO6)C(C)C5C3(C)CC4)C3=C2CCC2(C)C3CC3OC4(CCC(C)CO4)C(C)C32)C1` (stereo not given), the GI50 in assay [1] was 23 µM (inactive); in assay [2], 2.07 µM (inactive); in [3] it was 4.43 µM (inactive); in assay [18] it was 13.6 µM (inactive); in assay [4] it was 11.5 µM (inactive); in [5], 15.5 µM (inactive). Also, the GI50 in assay [6] is 14.7 µM (inactive); in [19], 14.1 µM (inactive); in [7], 14.7 µM (inactive); in assay [9], 13.7 µM (inactive); in assay [11] it was 15.1 µM (inactive); in [12] it was 4.98 µM (inactive). The GI50 is 17.6 µM (inactive) in assay [13]; 15.8 µM (inactive) in assay [14]; 13.4 µM (inactive) in [15]; 16.3 µM (inactive) in assay [16]; 13 µM (inactive) in assay [17]; 18.2 µM (inactive) in [20].
In the case of `C#CCOC(=O)c1ccccc1O`, the GI50 in [1], in assay [2], in assay [3], in assay [4], in [5] and in assay [6] was > 100 µM (inactive) throughout. The GI50 in assay [19], in assay [7], in assay [8], in assay [12], in assay [13] and in [14] was > 100 µM (inactive) each time. The GI50 in assay [15], in assay [16], in assay [17] and in assay [20] was > 100 µM (inactive) throughout.
As to `C1CCN(CCC2CCCCN2)CC1` (stereo not given), the GI50 in assay [1], in [2], in assay [3], in [18], in assay [4] and in assay [5] was > 100 µM (inactive) each time. For the same compound, the GI50 in [6], in [19], in [7], in assay [8], in [9] and in assay [11] was > 100 µM (inactive) throughout. Also, the GI50 in assay [12], in assay [13], in assay [14], in [15], in [16] and in assay [17] was > 100 µM (inactive) each time. Further, in [20], the GI50 is > 100 µM (inactive).
